Laboratory results from ChEMBL document CHEMBL1130496, “Synthesis of N-desmethyl PNQX: elaboration into an immunogenic conjugate and a radioiodinated ligand; radioimmunoassay for the AMPA/NMDA antagonist, PNQX” (Bioorg Med Chem Lett, 1997).

Key:
[1] = target: Glutamate receptor 4 (Homo sapiens) (UniProt P48058); experiment: Effective dose required for the action of AMPA receptor antagonistic activity in maximal electroshock anticonvulsant assay; assay type: functional
[2] = target: Glutamate receptor ionotropic, NMDA 2C (Rattus norvegicus) (UniProt Q00961); experiment: Effective dose required for the action of NMDA receptor activity in maximal electroshock anticonvulsant assay; assay type: functional
Sequence of Glutamate receptor ionotropic, NMDA 2C (Rattus norvegicus) (Q00961 20-1237 limits assumed): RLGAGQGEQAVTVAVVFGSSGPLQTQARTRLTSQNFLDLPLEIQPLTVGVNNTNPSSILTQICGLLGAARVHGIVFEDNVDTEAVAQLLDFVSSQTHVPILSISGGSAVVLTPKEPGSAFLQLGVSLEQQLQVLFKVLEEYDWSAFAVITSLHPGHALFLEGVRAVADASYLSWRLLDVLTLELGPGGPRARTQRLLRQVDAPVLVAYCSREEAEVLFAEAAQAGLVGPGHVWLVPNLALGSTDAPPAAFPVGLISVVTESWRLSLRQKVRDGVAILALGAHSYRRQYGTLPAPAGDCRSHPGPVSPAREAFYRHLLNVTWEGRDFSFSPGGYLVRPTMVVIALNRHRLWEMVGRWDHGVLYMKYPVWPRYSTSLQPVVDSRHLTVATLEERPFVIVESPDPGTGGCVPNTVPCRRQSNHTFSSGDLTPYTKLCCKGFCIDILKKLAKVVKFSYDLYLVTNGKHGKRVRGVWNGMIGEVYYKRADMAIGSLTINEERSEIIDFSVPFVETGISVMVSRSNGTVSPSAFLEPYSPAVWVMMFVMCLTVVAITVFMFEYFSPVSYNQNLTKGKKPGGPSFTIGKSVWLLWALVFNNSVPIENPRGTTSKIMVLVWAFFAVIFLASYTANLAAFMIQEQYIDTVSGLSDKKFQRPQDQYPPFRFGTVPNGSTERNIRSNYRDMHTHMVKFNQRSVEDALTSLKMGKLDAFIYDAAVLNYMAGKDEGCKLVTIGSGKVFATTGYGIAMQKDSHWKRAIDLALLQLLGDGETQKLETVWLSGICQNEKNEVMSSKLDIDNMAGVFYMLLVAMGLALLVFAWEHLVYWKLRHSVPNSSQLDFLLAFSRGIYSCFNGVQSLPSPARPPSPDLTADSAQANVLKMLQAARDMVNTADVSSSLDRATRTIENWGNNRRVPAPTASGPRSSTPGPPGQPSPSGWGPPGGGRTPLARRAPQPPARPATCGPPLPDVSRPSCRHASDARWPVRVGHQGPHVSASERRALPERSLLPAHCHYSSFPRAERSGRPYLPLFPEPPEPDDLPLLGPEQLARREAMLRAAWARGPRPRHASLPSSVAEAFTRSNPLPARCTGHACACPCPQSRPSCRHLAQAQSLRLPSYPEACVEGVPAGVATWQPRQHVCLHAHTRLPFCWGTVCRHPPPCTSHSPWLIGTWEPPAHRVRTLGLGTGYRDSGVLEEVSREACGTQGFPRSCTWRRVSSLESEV

Sequence of Glutamate receptor 4 (Homo sapiens) (P48058 whole entry): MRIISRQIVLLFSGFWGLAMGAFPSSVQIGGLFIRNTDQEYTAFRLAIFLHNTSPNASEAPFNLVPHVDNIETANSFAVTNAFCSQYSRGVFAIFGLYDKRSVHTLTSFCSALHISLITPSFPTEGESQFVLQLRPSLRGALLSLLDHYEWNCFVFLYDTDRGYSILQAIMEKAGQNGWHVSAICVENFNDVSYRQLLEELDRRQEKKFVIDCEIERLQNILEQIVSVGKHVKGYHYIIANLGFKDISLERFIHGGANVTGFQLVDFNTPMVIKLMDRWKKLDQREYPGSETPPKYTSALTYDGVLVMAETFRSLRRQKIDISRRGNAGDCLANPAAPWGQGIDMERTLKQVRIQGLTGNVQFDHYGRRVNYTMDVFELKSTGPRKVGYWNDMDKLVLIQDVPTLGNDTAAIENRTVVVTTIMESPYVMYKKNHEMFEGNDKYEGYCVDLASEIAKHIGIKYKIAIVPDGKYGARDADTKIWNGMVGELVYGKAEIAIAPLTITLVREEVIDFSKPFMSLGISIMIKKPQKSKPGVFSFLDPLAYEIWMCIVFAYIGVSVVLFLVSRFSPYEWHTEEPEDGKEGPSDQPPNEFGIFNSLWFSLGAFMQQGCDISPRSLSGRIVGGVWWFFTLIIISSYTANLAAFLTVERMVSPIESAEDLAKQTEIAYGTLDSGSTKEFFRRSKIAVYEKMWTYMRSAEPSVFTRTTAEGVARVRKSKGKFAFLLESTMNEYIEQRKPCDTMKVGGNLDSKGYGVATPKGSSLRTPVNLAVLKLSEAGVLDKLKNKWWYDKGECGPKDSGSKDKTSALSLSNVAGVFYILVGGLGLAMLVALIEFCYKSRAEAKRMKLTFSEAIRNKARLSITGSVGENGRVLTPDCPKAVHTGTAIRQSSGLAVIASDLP

SMILES	ED50 [1] [mg/kg]	ED50 [2] [mg/kg]
CN1CCc2c([N+](=O)[O-])cc3nc(O)c(O)nc3c2C1	0.44	
NS(=O)(=O)c1cccc2c1c([N+](=O)[O-])cc1nc(O)c(O)nc12		13.1
